Source: ChEMBL document CHEMBL1201862, “PubChem BioAssay data set” (2004)
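Dose response: 5 concentrations. Exposure: 48 h. Format: 96-well plates. Endpoint: linear interpolation; highest concentration if not reached. At the GI50, growth is halved.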 Calls of active or inactive are those of the source. No stated cut-off is given here; in the data, active = GI50 up to about 1.1 µM and inactive = higher.

Assays:
Assay in all cases: DTP human tumour cell line panel, 48 h
DLD-1 = tested on: DLD-1
UO-31 = tested on: UO-31
OVCAR-5 = tested on: OVCAR-5
NCI-H23 = tested on: NCI-H23
NCI-H460 = tested on: NCI-H460
OVCAR-3 = tested on: OVCAR-3
RXF 393 = tested on: RXF 393
SK-MEL-5 = tested on: SK-MEL-5
RXF 631 = tested on: RXF 631
DMS-114 = tested on: DMS-114
CAKI-1 = tested on: CAKI-1
KM-20L2 = tested on: KM-20L2
EKVX = tested on: EKVX
HCT-116 = tested on: HCT-116
Malme-3M = tested on: Malme-3M
ACHN = tested on: ACHN
HOP-62 = tested on: HOP-62
SNB-75 = tested on: SNB-75
HOP-18 = tested on: HOP-18
TK-10 = tested on: TK-10
SNB-19 = tested on: SNB-19
M14 = tested on: M14
OVCAR-8 = tested on: OVCAR-8
SW-620 = tested on: SW-620
DMS-273 = tested on: DMS-273
HCT-15 = tested on: HCT-15
SN12C = tested on: SN12C
SR = tested on: SR
HT-29 = tested on: HT-29
MOLT-4 = tested on: MOLT-4
CCRF-CEM = tested on: CCRF-CEM
U-251 = tested on: U-251
786-0 = tested on: 786-0
SF-295 = tested on: SF-295
UACC-62 = tested on: UACC-62
HOP-92 = tested on: HOP-92
K562 = tested on: K562
KM12 = tested on: KM12
HL-60 = tested on: HL-60
SF-268 = tested on: SF-268
COLO 205 = tested on: COLO 205
NCI-H522 = tested on: NCI-H522
HCC 2998 = tested on: HCC 2998
A549 = tested on: A549
LOX IMVI = tested on: LOX IMVI
SF-539 = tested on: SF-539
A498 = tested on: A498
SK-MEL-28 = tested on: SK-MEL-28
IGROV-1 = tested on: IGROV-1
NCI-H226 = tested on: NCI-H226
LXFL 529 = tested on: LXFL 529
OVCAR-4 = tested on: OVCAR-4
SNB-78 = tested on: SNB-78
UACC-257 = tested on: UACC-257
RPMI-8226 = tested on: RPMI-8226
SK-MEL-2 = tested on: SK-MEL-2
M19-MEL = tested on: M19-MEL

Compound: CCOC(=O)c1[nH]c(CN(C)Cc2[nH]c(C(=O)OCC)c(C)c2C(=O)OCc2ccccc2)c(C(=O)OCc2ccccc2)c1C
- GI50 (DLD-1): 33.9 µM (inactive)
- GI50 (UO-31): 4.09 µM (inactive)
- GI50 (OVCAR-5): 6.81 µM (inactive)
- GI50 (NCI-H23): 12.3 µM (inactive)
- GI50 (NCI-H460): 5.58 µM (inactive)
- GI50 (OVCAR-3): 10.4 µM (inactive)
- GI50 (RXF 393): 3.87 µM (inactive)
- GI50 (SK-MEL-5): 6.44 µM (inactive)
- GI50 (RXF 631): 4.11 µM (inactive)
- GI50 (DMS-114): 12.7 µM (inactive)
- GI50 (CAKI-1): 2.85 µM (inactive)
- GI50 (KM-20L2): 3.04 µM (inactive)
- GI50 (EKVX): 12.9 µM (inactive)
- GI50 (HCT-116): 7 µM (inactive)
- GI50 (Malme-3M): 40.3 µM (inactive)
- GI50 (ACHN): 18.4 µM (inactive)
- GI50 (HOP-62): 13 µM (inactive)
- GI50 (SNB-75): 3.3 µM (inactive)
- GI50 (HOP-18): > 100 µM (inactive)
- GI50 (TK-10): 16.7 µM (inactive)
- GI50 (SNB-19): 12.9 µM (inactive)
- GI50 (M14): 4.99 µM (inactive)
- GI50 (OVCAR-8): 24 µM (inactive)
- GI50 (SW-620): 12.7 µM (inactive)
- GI50 (DMS-273): 10 µM (inactive)
- GI50 (HCT-15): 8.3 µM
- GI50 (SN12C): 6.19 µM (inactive)
- GI50 (SR): > 100 µM (inactive)
- GI50 (HT-29): 2.77 µM (inactive)
- GI50 (MOLT-4): > 100 µM (inactive)
- GI50 (CCRF-CEM): > 100 µM (inactive)
- GI50 (U-251): 12.1 µM (inactive)
- GI50 (786-0): 11.2 µM (inactive)
- GI50 (SF-295): 19.3 µM (inactive)
- GI50 (UACC-62): 20.4 µM (inactive)
- GI50 (HOP-92): 2.42 µM (inactive)
- GI50 (K562): 6.17 µM (inactive)
- GI50 (KM12): 7.45 µM (inactive)
- GI50 (HL-60): 3.96 µM (inactive)
- GI50 (SF-268): 10.7 µM (inactive)
- GI50 (COLO 205): 9.08 µM (inactive)
- GI50 (NCI-H522): 6.87 µM (inactive)
- GI50 (HCC 2998): 14.4 µM (inactive)
- GI50 (A549): 16.6 µM (inactive)
- GI50 (LOX IMVI): 4.75 µM (inactive)
- GI50 (SF-539): 8.47 µM (inactive)
- GI50 (A498): 15 µM (inactive)
- GI50 (SK-MEL-28): 16.9 µM (inactive)
- GI50 (IGROV-1): 27.4 µM (inactive)
- GI50 (NCI-H226): 12.7 µM (inactive)
- GI50 (LXFL 529): 13.1 µM (inactive)
- GI50 (OVCAR-4): 6.24 µM (inactive)
- GI50 (SNB-78): > 100 µM (inactive)
- GI50 (UACC-257): 21.4 µM (inactive)

Compound: CN(C)CCC1(C2=CCCC2)CC/C(=C\c2ccccc2Cl)C1=O (stereo not drawn)
- GI50 (DLD-1): 15.2 µM (inactive)
- GI50 (UO-31): 7.24 µM (inactive)
- GI50 (OVCAR-5): 15.7 µM (inactive)
- GI50 (NCI-H23): 15.2 µM (inactive)
- GI50 (NCI-H460): 13.2 µM (inactive)
- GI50 (OVCAR-3): 14.3 µM (inactive)
- GI50 (RXF 393): 4.49 µM (inactive)
- GI50 (SK-MEL-5): 12.8 µM (inactive)
- GI50 (RXF 631): 6.07 µM (inactive)
- GI50 (DMS-114): 12.2 µM (inactive)
- GI50 (KM-20L2): 11.5 µM (inactive)
- GI50 (EKVX): 15.6 µM (inactive)
- GI50 (HCT-116): 8.41 µM (inactive)
- GI50 (Malme-3M): 14.5 µM (inactive)
- GI50 (ACHN): 17.3 µM (inactive)
- GI50 (HOP-18): 12.4 µM (inactive)
- GI50 (TK-10): 18.7 µM (inactive)
- GI50 (RPMI-8226): 18.3 µM (inactive)
- GI50 (SNB-19): 14.3 µM (inactive)
- GI50 (M14): 12.1 µM (inactive)
- GI50 (OVCAR-8): 15 µM (inactive)
- GI50 (SW-620): 11.9 µM (inactive)
- GI50 (HCT-15): 5.85 µM
- GI50 (SN12C): 13.4 µM (inactive)
- GI50 (HT-29): 6.44 µM (inactive)
- GI50 (MOLT-4): 4.57 µM (inactive)
- GI50 (CCRF-CEM): 9.25 µM (inactive)
- GI50 (U-251): 12.6 µM (inactive)
- GI50 (786-0): 12.6 µM (inactive)
- GI50 (SK-MEL-2): 13.5 µM (inactive)
- GI50 (SF-295): 14.6 µM (inactive)
- GI50 (UACC-62): 14.6 µM (inactive)
- GI50 (HOP-92): 12.4 µM (inactive)
- GI50 (K562): 3.75 µM (inactive)
- GI50 (KM12): 12.9 µM (inactive)
- GI50 (HL-60): 4.41 µM (inactive)
- GI50 (SF-268): 14.3 µM (inactive)
- GI50 (COLO 205): 16.2 µM (inactive)
- GI50 (HCC 2998): 8.61 µM (inactive)
- GI50 (A549): 13.8 µM (inactive)
- GI50 (SF-539): 15.2 µM (inactive)
- GI50 (A498): 14.1 µM (inactive)
- GI50 (SK-MEL-28): 13.1 µM (inactive)
- GI50 (IGROV-1): 19.8 µM (inactive)
- GI50 (LXFL 529): 11.5 µM (inactive)
- GI50 (M19-MEL): 33 µM (inactive)
- GI50 (OVCAR-4): 11.9 µM (inactive)
- GI50 (SNB-78): 12.4 µM (inactive)
- GI50 (UACC-257): 14.8 µM (inactive)
